From ChEMBL document CHEMBL1817647, “1-Heteroaryl-6-(3,4-dichlorophenyl)-3-azabicyclo[4.1.0]heptane: further insights into a class of triple re-uptake inhibitors” (Bioorg Med Chem, 2011)

Experiments:
[1] = target: Sodium-dependent noradrenaline transporter (Homo sapiens, UniProt P23975); experiment: Displacement of [3H]nisoxetine from human recombinant NET by scintillation proximity assay
[2] = target: Sodium-dependent dopamine transporter (Homo sapiens, UniProt Q01959); experiment: Displacement of [3H]WIN-35428 from human recombinant DAT by scintillation proximity assay
Sodium-dependent dopamine transporter, sequence (Q01959 whole entry): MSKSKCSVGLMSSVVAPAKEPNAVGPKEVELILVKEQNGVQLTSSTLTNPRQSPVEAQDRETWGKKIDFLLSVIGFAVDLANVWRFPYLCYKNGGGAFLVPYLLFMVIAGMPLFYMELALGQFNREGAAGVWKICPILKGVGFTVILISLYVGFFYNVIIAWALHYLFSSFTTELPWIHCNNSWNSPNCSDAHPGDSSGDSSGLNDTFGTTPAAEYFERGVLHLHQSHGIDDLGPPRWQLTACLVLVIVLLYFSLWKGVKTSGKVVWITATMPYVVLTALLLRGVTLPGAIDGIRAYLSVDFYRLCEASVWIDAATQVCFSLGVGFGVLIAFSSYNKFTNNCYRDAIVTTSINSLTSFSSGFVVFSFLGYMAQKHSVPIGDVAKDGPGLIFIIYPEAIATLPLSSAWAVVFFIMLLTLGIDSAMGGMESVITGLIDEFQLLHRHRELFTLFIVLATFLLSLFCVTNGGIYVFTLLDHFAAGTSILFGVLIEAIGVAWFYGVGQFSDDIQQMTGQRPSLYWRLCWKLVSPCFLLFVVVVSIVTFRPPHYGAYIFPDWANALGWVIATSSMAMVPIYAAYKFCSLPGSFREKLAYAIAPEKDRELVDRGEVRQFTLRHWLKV

[3] = target: Sodium-dependent serotonin transporter (Homo sapiens, UniProt P31645); experiment: Displacement of [3H]citalopram from human recombinant SERT scintillation proximity assay
Sodium-dependent serotonin transporter, sequence (P31645 whole entry): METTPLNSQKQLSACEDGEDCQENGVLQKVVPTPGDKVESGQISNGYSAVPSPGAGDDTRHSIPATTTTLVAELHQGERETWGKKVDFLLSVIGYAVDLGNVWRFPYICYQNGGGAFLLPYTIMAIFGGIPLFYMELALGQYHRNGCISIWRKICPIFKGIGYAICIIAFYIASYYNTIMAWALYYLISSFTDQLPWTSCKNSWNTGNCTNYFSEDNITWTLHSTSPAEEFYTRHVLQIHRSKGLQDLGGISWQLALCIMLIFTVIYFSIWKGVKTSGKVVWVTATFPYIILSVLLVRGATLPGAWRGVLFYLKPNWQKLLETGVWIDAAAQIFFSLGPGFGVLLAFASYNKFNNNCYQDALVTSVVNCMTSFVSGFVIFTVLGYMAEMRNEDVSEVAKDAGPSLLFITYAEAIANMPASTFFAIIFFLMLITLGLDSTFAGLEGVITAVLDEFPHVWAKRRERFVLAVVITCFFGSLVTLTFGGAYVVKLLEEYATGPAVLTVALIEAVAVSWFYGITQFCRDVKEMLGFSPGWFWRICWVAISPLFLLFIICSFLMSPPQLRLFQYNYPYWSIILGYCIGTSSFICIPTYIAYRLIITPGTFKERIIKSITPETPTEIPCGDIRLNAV

[4] = Oral absorption in rat; type: ADME, organism-based; conditions: in vivo
Liver microsomes [5] = experiment: Intrinsic clearance in human liver microsomes assessed per mg of protein at 0.5 uM for 30 mins by HPLC-MS/MS analysis in presence of NADPH; type: ADME, Microsome; conditions: 0.5 h
[6] = Volume of distribution in rat; type: ADME, organism-based; conditions: in vivo
Liver microsomes [7] = experiment: Intrinsic clearance in rat liver microsomes assessed per mg of protein at 0.5 uM for 30 mins by HPLC-MS/MS analysis in presence of NADPH; type: ADME, Microsome; conditions: 0.5 h
[8] = Half life in rat; type: ADME, organism-based; conditions: in vivo
[9] = Ratio of drug level in brain to blood in rat after 1 hr; type: ADME, tissue-based; conditions: read-out: BBR
[10] = Oral bioavailability in rat; type: ADME, organism-based; conditions: in vivo
[11] = Blood clearance in rat; type: ADME, organism-based
Cytochrome P450 2C19 = Cytochrome P450 2C19 (Homo sapiens, UniProt P33261); experiment: Inhibition of human CYP2C19 incubated for 10 mins before substrate addition by fluorescence assay
Cytochrome P450 2C19, sequence (P33261 whole entry): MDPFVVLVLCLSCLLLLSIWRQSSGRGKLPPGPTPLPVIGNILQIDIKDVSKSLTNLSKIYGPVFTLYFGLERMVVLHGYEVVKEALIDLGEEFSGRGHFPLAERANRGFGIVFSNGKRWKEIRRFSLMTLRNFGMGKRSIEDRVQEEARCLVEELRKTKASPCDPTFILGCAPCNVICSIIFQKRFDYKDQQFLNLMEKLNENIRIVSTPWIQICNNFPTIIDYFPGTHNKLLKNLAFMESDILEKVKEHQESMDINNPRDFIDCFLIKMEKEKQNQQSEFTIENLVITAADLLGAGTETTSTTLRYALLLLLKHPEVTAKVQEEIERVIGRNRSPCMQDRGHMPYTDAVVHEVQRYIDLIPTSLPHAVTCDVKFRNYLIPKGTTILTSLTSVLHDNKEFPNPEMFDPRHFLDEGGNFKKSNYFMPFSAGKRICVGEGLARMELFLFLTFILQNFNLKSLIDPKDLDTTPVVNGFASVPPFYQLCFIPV

Cytochrome P450 2C9 = Cytochrome P450 2C9 (Homo sapiens, UniProt P11712); experiment: Inhibition of human CYP2C9 incubated for 10 mins before substrate addition by fluorescence assay
Cytochrome P450 2C9, sequence (P11712 whole entry): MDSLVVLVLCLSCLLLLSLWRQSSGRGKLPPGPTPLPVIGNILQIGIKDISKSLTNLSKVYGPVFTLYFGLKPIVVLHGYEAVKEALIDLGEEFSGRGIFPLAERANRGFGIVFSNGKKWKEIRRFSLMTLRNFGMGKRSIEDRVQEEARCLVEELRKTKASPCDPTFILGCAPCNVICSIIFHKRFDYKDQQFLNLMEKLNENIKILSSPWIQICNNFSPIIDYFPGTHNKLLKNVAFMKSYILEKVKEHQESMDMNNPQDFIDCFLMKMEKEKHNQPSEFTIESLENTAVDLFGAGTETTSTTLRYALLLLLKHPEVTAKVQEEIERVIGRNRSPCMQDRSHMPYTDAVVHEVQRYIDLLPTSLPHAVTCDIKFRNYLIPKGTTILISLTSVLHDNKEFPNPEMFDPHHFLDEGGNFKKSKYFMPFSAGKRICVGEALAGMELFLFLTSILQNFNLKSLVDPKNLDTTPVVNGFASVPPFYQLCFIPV

Cytochrome P450 2D6 = Cytochrome P450 2D6 (Homo sapiens, UniProt P10635); experiment: Inhibition of human CYP2D6 incubated for 10 mins before substrate addition by fluorescence assay
Cytochrome P450 2D6, sequence (P10635 whole entry): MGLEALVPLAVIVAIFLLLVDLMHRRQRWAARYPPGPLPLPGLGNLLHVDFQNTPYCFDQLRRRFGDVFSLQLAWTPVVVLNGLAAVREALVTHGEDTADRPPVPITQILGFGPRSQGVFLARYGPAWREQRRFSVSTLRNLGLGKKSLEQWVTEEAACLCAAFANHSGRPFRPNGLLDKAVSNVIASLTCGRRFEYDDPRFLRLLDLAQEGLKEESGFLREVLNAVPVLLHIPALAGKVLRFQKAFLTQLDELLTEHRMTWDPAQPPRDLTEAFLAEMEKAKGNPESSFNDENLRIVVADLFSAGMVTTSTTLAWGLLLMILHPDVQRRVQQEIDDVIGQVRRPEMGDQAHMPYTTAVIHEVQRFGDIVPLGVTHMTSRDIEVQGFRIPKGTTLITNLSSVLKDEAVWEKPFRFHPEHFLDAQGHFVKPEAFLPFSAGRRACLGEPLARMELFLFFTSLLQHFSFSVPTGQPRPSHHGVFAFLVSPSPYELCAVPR

Cytochrome P450 1A2 = target: T1, Cytochrome P450 1A2 (Homo sapiens, UniProt P05177); experiment: Inhibition of human CYP1A2 incubated for 10 mins before substrate addition by fluorescence assay
T1 sequence (P05177 whole entry): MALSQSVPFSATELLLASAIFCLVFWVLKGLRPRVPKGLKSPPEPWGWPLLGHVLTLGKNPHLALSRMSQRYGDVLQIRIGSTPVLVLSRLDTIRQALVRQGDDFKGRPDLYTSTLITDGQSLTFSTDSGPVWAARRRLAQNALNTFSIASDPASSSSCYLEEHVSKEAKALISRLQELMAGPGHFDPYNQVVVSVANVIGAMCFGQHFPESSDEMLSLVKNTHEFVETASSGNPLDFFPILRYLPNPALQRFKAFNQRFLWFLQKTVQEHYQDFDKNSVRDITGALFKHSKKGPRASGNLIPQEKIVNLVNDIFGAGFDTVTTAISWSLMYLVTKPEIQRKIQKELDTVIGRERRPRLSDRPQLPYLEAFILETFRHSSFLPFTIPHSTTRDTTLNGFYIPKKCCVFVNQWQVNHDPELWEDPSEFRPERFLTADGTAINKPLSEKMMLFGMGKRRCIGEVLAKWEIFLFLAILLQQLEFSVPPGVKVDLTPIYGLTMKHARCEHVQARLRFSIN

Cytochrome P450 3A4 = Cytochrome P450 3A4 (Homo sapiens, UniProt P08684); experiment: Inhibition of human CYP3A4 incubated for 10 mins before substrate addition by fluorescence assay
Cytochrome P450 3A4, sequence (P08684 whole entry): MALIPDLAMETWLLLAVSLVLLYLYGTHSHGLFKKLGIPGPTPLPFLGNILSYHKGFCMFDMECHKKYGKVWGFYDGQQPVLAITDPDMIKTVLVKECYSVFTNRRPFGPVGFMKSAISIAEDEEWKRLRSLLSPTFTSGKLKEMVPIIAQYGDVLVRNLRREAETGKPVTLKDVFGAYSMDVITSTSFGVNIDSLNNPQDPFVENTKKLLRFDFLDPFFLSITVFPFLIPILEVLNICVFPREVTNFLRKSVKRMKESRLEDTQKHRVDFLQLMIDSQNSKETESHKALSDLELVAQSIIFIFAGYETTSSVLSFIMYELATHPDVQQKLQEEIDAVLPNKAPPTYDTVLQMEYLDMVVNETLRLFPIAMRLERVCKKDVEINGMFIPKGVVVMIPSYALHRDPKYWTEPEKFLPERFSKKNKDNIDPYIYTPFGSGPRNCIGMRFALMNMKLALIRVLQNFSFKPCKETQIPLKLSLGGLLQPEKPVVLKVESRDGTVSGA

[12] = Hepatic extraction ratio in rat; conditions: in vivo

Sodium-dependent noradrenaline transporter, sequence (P23975 whole entry): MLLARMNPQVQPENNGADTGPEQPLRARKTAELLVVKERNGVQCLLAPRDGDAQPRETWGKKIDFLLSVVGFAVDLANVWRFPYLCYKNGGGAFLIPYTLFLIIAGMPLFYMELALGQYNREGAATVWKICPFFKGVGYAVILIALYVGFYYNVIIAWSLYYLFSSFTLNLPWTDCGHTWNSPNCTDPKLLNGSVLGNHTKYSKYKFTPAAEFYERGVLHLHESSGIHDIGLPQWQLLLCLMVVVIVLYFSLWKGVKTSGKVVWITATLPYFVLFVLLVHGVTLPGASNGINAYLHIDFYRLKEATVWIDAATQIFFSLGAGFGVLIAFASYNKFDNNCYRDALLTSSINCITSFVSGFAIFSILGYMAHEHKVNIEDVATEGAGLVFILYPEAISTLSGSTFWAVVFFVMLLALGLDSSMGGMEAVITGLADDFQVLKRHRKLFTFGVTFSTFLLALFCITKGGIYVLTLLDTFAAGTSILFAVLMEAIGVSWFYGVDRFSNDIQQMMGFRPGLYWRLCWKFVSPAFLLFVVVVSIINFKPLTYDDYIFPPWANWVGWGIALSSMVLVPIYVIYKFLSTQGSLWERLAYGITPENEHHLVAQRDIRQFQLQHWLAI

## Clc1ccc([C@]23CCNCC2(Cn2ncc4ccccc42)C3)cc1Cl (stereo partly specified)
[1]
  Ki: 50.1 nM
[2]
  Ki: 15.8 nM
[3]
  Ki: 0.251 nM

## Cc1ccn(CC23CNCC[C@]2(c2ccc(Cl)c(Cl)c2)C3)c1 (stereo partly specified)
[1]
  Ki: 39.8 nM
[2]
  Ki: 31.6 nM
[3]
  Ki: 0.501 nM

## Clc1ccc([C@]23CCNCC2(Cn2ccc4ccccc42)C3)cc1Cl (stereo partly specified)
[1]
  Ki: 63.1 nM
[2]
  Ki: 20 nM
[3]
  Ki: 1.26 nM

## Clc1ccc([C@]23CCNCC2(Cn2cc4ccccc4n2)C3)cc1Cl (stereo partly specified)
[1]
  Ki: 50.1 nM
[2]
  Ki: 3.98 nM
[3]
  Ki: 0.2 nM

## Cc1cnc([C@@]23CNCC[C@]2(c2ccc(Cl)c(Cl)c2)C3)o1 (racemic)
[1]
  Ki: 6.31 nM
[2]
  Ki: 1 nM
[3]
  Ki: 6.31 nM

## Cc1csc([C@@]23CNCC[C@]2(c2ccc(Cl)c(Cl)c2)C3)n1 (racemic)
[1]
  Ki: 0.398 nM
[2]
  Ki: 0.158 nM
[3]
  Ki: 0.501 nM

## Cc1cc([C@@]23CNCC[C@]2(c2ccc(Cl)c(Cl)c2)C3)no1 (racemic)
[1]
  Ki: 39.8 nM
[2]
  Ki: 2 nM
[3]
  Ki: 7.94 nM

## Cc1noc([C@@]23CNCC[C@]2(c2ccc(Cl)c(Cl)c2)C3)n1 (racemic)
[1]
  Ki: 31.6 nM
[2]
  Ki: 0.794 nM
[3]
  Ki: 7.94 nM

## Cc1csc(C[C@@]23CNCC[C@]2(c2ccc(Cl)c(Cl)c2)C3)n1 (racemic)
[1]
  Ki: 0.631 nM
[2]
  Ki: 6.31 nM
[3]
  Ki: 0.1 nM

## Cc1coc(C[C@@]23CNCC[C@]2(c2ccc(Cl)c(Cl)c2)C3)n1 (racemic)
[1]
  Ki: 31.6 nM
[2]
  Ki: 63.1 nM
[3]
  Ki: 2 nM

## Cc1ncoc1C[C@@]12CNCC[C@]1(c1ccc(Cl)c(Cl)c1)C2 (racemic)
[1]
  Ki: 25.1 nM
[2]
  Ki: 12.6 nM
[3]
  Ki: 3.16 nM

## Cc1cnn(C[C@@]23CNCC[C@]2(c2ccc(Cl)c(Cl)c2)C3)c1 (racemic)
[1]
  Ki: 79.4 nM
[2]
  Ki: 126 nM
[3]
  Ki: 0.794 nM

## Cc1cc(C)n(C[C@@]23CNCC[C@]2(c2ccc(Cl)c(Cl)c2)C3)n1 (racemic)
[1]
  Ki: 1.58 nM
[2]
  Ki: 6.31 nM
[3]
  Ki: 0.398 nM

## FC(F)(F)c1ccnn1C[C@@]12CNCC[C@]1(c1ccc(Cl)c(Cl)c1)C2 (racemic)
[1]
  Ki: 10 nM
[2]
  Ki: 1.58 nM
[3]
  Ki: 2 nM

## FC(F)(F)c1ccn(C[C@@]23CNCC[C@]2(c2ccc(Cl)c(Cl)c2)C3)n1 (racemic)
[1]
  Ki: 158 nM
[2]
  Ki: 25.1 nM
[3]
  Ki: 2 nM

## N#Cc1ccnn1C[C@@]12CNCC[C@]1(c1ccc(Cl)c(Cl)c1)C2 (racemic)
[1]
  Ki: 31.6 nM
[2]
  Ki: 20 nM
[3]
  Ki: 5.01 nM

## N#Cc1ccn(C[C@@]23CNCC[C@]2(c2ccc(Cl)c(Cl)c2)C3)n1 (racemic)
[1]
  Ki: 25.1 nM
[2]
  Ki: 25.1 nM
[3]
  Ki: 1 nM

## Cc1cc(C(F)(F)F)nn1C[C@@]12CNCC[C@]1(c1ccc(Cl)c(Cl)c1)C2 (racemic)
[1]
  Ki: 25.1 nM
[2]
  Ki: 2 nM
[3]
  Ki: 1 nM

## Cc1cc(C(F)(F)F)n(C[C@@]23CNCC[C@]2(c2ccc(Cl)c(Cl)c2)C3)n1 (racemic)
[1]
  Ki: 10 nM
[2]
  Ki: 1.26 nM
[3]
  Ki: 0.794 nM

## CC(C)(C)c1ccn(C[C@@]23CNCC[C@]2(c2ccc(Cl)c(Cl)c2)C3)n1 (racemic)
[1]
  Ki: 50.1 nM
[2]
  Ki: 6.31 nM
[3]
  Ki: 0.251 nM

## Clc1ccc([C@]23CCNC[C@@]2(Cn2cccc2)C3)cc1Cl (racemic)
[1]
  Ki: 10 nM
[2]
  Ki: 15.8 nM
[3]
  Ki: 0.398 nM

## N#Cc1cccn1C[C@@]12CNCC[C@]1(c1ccc(Cl)c(Cl)c1)C2 (racemic)
[1]
  Ki: 39.8 nM
[2]
  Ki: 12.6 nM
[3]
  Ki: 2.51 nM

## Cc1ccc(C)n1C[C@@]12CNCC[C@]1(c1ccc(Cl)c(Cl)c1)C2 (racemic)
[1]
  Ki: 20 nM
[2]
  Ki: 20 nM
[3]
  Ki: 2.51 nM

## Cc1cc(C)n(C[C@@]23CNCC[C@]2(c2ccc(Cl)c(Cl)c2)C3)c1 (racemic)
[1]
  Ki: 20 nM
[2]
  Ki: 7.94 nM
[3]
  Ki: 2 nM

## Clc1ccc([C@]23CCNC[C@@]2(Cn2cncn2)C3)cc1Cl (racemic)
[1]
  Ki: 100 nM
[2]
  Ki: 200 nM
[3]
  Ki: 3.98 nM

## Cc1nc(C)n(C[C@@]23CNCC[C@]2(c2ccc(Cl)c(Cl)c2)C3)n1 (racemic)
[1]
  Ki: 39.8 nM
[2]
  Ki: 25.1 nM
[3]
  Ki: 3.16 nM

## CC(C)c1nnnn1C[C@@]12CNCC[C@]1(c1ccc(Cl)c(Cl)c1)C2 (racemic)
[1]
  Ki: 398 nM
[2]
  Ki: 63.1 nM
[3]
  Ki: 63.1 nM

## CC(C)c1nnn(C[C@@]23CNCC[C@]2(c2ccc(Cl)c(Cl)c2)C3)n1 (racemic)
[1]
  Ki: 398 nM
[2]
  Ki: 25.1 nM
[3]
  Ki: 0.794 nM

## Cc1cc(C)n(CC23CNCC[C@]2(c2ccc(Cl)c(Cl)c2)C3)n1 (single isomer, unassigned)
[4]
  Fa: 50%
[1]
  Ki: 1 nM
Liver microsomes [5]
  CL: 2.4 mL/min/g
[2]
  Ki: 3.16 nM
[6]
  Vd: 6.9 L/kg
Liver microsomes [7]
  CL: 5.5 mL/min/g
[8]
  half-life: 138 min
[9]
  Kp at 1 h: 0.8
[10]
  bioavailability: 6%
[11]
  clearance: 52 mL/min/kg
[3]
  Ki: 0.2 nM

## Cc1csc(C23CNCC[C@]2(c2ccc(Cl)c(Cl)c2)C3)n1 (single isomer, unassigned; enantiomer 1)
[1]
  Ki: 0.398 nM
Liver microsomes [5]
  CL: 2.6 mL/min/g
[2]
  Ki: 0.2 nM
Cytochrome P450 2C19
  IC50: > 6 µM
Cytochrome P450 2C9
  IC50: > 6 µM
Liver microsomes [7]
  CL: 5.4 mL/min/g
Cytochrome P450 2D6
  IC50: > 6 µM
Cytochrome P450 1A2
  IC50: > 6 µM
Cytochrome P450 3A4
  IC50: > 6 µM
[3]
  Ki: 0.398 nM

## Cc1ccn(CC23CNCC[C@]2(c2ccc(Cl)c(Cl)c2)C3)n1 (single isomer, unassigned; enantiomer 1)
[1]
  Ki: 1000 nM
[2]
  Ki: 316 nM
[3]
  Ki: 20 nM

## Cc1cc(C)n(CC23CNCC[C@]2(c2ccc(Cl)c(Cl)c2)C3)n1 (single isomer, unassigned; enantiomer 1)
[1]
  Ki: 501 nM
[2]
  Ki: 158 nM
[3]
  Ki: 15.8 nM

## N#Cc1ccn(CC23CNCC[C@]2(c2ccc(Cl)c(Cl)c2)C3)c1 (single isomer, unassigned; enantiomer 1)
[1]
  Ki: 31.6 nM
[2]
  Ki: 12.6 nM
[3]
  Ki: 0.631 nM

## Cc1nc(C)n(CC23CNCC[C@]2(c2ccc(Cl)c(Cl)c2)C3)n1 (single isomer, unassigned; enantiomer 1)
[4]
  Fa: 94%
[1]
  Ki: 25.1 nM
[2]
  Ki: 15.8 nM
Cytochrome P450 2C19
  IC50: > 25 µM
[6]
  Vd: 8.1 L/kg
Cytochrome P450 2C9
  IC50: > 25 µM
Cytochrome P450 2D6
  IC50: > 25 µM
Cytochrome P450 1A2
  IC50: > 25 µM
[8]
  half-life: 102 min
[9]
  Kp at 1 h: 0.4
Cytochrome P450 3A4
  IC50: > 25 µM
[12]
  hepatic extraction ratio: 0.8
[10]
  bioavailability: 17%
[11]
  clearance: 63 mL/min/kg
[3]
  Ki: 2 nM

## Cc1ccnn1CC12CNCC[C@]1(c1ccc(Cl)c(Cl)c1)C2 (single isomer, unassigned; enantiomer 2)
[1]
  Ki: 1.58 nM
Liver microsomes [5]
  CL: 2.5 mL/min/g
[2]
  Ki: 3.16 nM
Cytochrome P450 2C19
  IC50: > 10 µM
Cytochrome P450 2C9
  IC50: > 10 µM
Liver microsomes [7]
  CL: 2.6 mL/min/g
Cytochrome P450 2D6
  IC50: > 10 µM
Cytochrome P450 1A2
  IC50: > 10 µM
Cytochrome P450 3A4
  IC50: > 10 µM
[3]
  Ki: 0.794 nM

## Cc1ccn(CC23CNCC[C@]2(c2ccc(Cl)c(Cl)c2)C3)n1 (stereo in doubt)
[1]
  Ki: 3.16 nM
[2]
  Ki: 15.8 nM
Cytochrome P450 2C19
  IC50: > 10 µM
Cytochrome P450 2C9
  IC50: > 10 µM
Cytochrome P450 2D6
  IC50: > 10 µM
Cytochrome P450 1A2
  IC50: > 10 µM
Cytochrome P450 3A4
  IC50: > 10 µM
[3]
  Ki: 0.251 nM

## Cc1csc(C23CNCC[C@]2(c2ccc(Cl)c(Cl)c2)C3)n1 (stereo in doubt; 7)
[1]
  Ki: 31.6 nM
[2]
  Ki: 20 nM
[3]
  Ki: 15.8 nM

## Cc1ccnn1CC12CNCC[C@]1(c1ccc(Cl)c(Cl)c1)C2 (stereo in doubt; 16)
[1]
  Ki: 316 nM
[2]
  Ki: 100 nM
[3]
  Ki: 20 nM

## Cc1nc(C)n(CC23CNCC[C@]2(c2ccc(Cl)c(Cl)c2)C3)n1 (stereo in doubt; 38)
[1]
  Ki: 1580 nM
[2]
  Ki: 200 nM
[3]
  Ki: 39.8 nM
